Results on 31 molecules are retold here after ChEMBL document CHEMBL5370592, “Synthesis and Structure-Activity Relationships of a New Class of Oxadiazoles Targeting DprE1 as Antitubercular Agents” (ACS Med Chem Lett, 2023).

≈ marks a conversion by molar mass, not a printed value. Calls of active or inactive are those of the source. The rule behind the calls is not given here.

A short description of series [1]: Cytotoxicity against human HepG2 cells assessed as reduction in cell viability incubated for 24 hrs in DMEM/10% FBS supplemented with glucose by CellTiter-Glo luminescent assay. It is filed as toxicity, cell-based.
For series [2], the system named is Mycobacterium tuberculosis. Put plainly: Antitubercular activity against Mycobacterium tuberculosis H37Rv ATCC 27294 assessed as inhibition of bacterial growth cultured in Middlebrook 7H9/BSA/Tyloxapol with glucose medium for 2 weeks. The conditions noted are these: H37Rv ATCC 27294, 336 h. It is filed as functional.
A short description of series [3]: Cytotoxicity against human HepG2 cells assessed as reduction in cell viability incubated for 24 hrs in DMEM/10% FBS supplemented with galactose by CellTiter-Glo luminescent assay. In kind it is toxicity, cell-based.
For series [4], the system named is Mycobacterium tuberculosis. In words: Antitubercular activity against Mycobacterium tuberculosis H37Rv ATCC 27294 assessed as inhibition of bacterial growth cultured in Middlebrook 7H9/glucose/casitone/tyloxapol medium for 2 weeks. In kind it is functional. Particulars: H37Rv ATCC 27294, 336 h.
For series [5], the system named is Mycobacterium tuberculosis. Put plainly: Antitubercular activity against Mycobacterium tuberculosis H37Rv ATCC 27294 assessed as inhibition of bacterial growth cultured in Middlebrook 7H9/ADC/Tween 80 medium for 2 weeks. It is filed as functional. Particulars: H37Rv ATCC 27294, 336 h.
The test system of series [6] is Mycobacterium tuberculosis. In words: Antitubercular activity against Mycobacterium tuberculosis H37Rv ATCC 27294 assessed as inhibition of bacterial growth cultured in Middlebrook 7H9/ADC/Tween 80 with cydC::aph medium for 2 weeks. It is filed as functional. Particulars: H37Rv ATCC 27294, 336 h.
Series [7] deals with Mycobacterium tuberculosis. In words: Induction of DNA damage in Mycobacterium tuberculosis H37Rv transfected with PradA-LUX reporter assessed as induction of radA reporter gene expression incubated for 12 days by bioluminescence analysis. It is filed as functional, organism-based. The conditions noted are these: time 12.0 day.
The test system of series [8] is Mycobacterium tuberculosis. Put plainly: Antitubercular activity against Mycobacterium tuberculosis H37RV ATCC 27294 assessed as inhibition of bacterial growth cultured in Middlebrook 7H9/cholesterol/BSA/Tyloxapol medium for 2 weeks. It is filed as functional. Particulars: H37Rv ATCC 27294, 336 h.
In series [9] the test system is Mycobacterium tuberculosis. In words: Antitubercular activity against Mycobacterium tuberculosis H37Rv ATCC 27294 assessed as inhibition of bacterial growth cultured in Middlebrook 7H9/DPPC/cholesterol/BSA/Tyloxapol medium for 2 weeks. The conditions noted are these: H37Rv ATCC 27294, 336 h. It is filed as functional.
Series [10] has as its system Mycobacterium tuberculosis. Put plainly: Induction of DNA damage in Mycobacterium tuberculosis H37Rv transfected with PrecA-LUX reporter assessed as induction of recA reporter gene expression incubated for 12 days by bioluminescence analysis. It is filed as functional, organism-based. Particulars: time 12.0 day.

On to `O=C(c1ccccc1)C1CCN(C(=O)C2CCN(c3nnc(-c4ccccc4)o3)CC2)CC1`, for which the IC50 at 24 h in [1] was more than 50 µM; in series [3], 37.5 µM. For the same molecule, the MIC in series [2] amounted to 9.4 µM (≈ 4.18 µg/mL); in series [4] it was 4.7 µM (≈ 2.09 µg/mL).
As to `O=C(C1CCN(c2nnc(-c3ccc(C(F)(F)F)cc3)o2)CC1)N1CCC(Cc2ccccc2)CC1`, the IC50 at 24 h in [1] and in [3] was more than 50 µM in each case. The MIC in [2] and in [4] was more than 50 µM each time.
As for `O=C(C1CCN(c2nnc(-c3ccccc3)o2)CC1)N1CCCCC1`, the IC50 at 24 h in [1] and in [3] was more than 50 µM each time. Besides, the MIC in series [2] and in series [4] was more than 50 µM each time.
Regarding `CCN(CC)C(=O)C1CCN(c2nnc(-c3ccccc3)o2)CC1`, the IC50 at 24 h in [1] and in [3] was more than 50 µM throughout. Also, the MIC in series [2] and in series [4] was more than 50 µM in each case.
In the case of `O=C(C1CCN(c2nnc(-c3ccccc3)s2)CC1)N1CCC(Cc2ccccc2)CC1`, the values for the IC50 at 24 h in series [1] and in series [3] were more than 50 µM and 37.5 µM, respectively. Further, the MIC in series [2] came out at 1.2 µM (≈ 0.536 µg/mL); in series [4], 0.3 µM (≈ 0.134 µg/mL).
With `O=C(C1CCN(c2nnc(-c3ccccc3)o2)CC1)N1CCC(c2ccccc2)CC1`, the figures for the IC50 at 24 h in series [1] and in [3] were more than 50 µM and 37.5 µM, respectively. Further, the results for the MIC in series [2] and in series [4] were 4.7 µM (≈ 1.96 µg/mL) and 2.3 µM (≈ 0.958 µg/mL), respectively.
Regarding `O=C(C1CCN(c2nnc(-c3ccccc3)o2)CC1)N1CCC(CC2CCCCC2)CC1`, the 50% inhibitory concentration (IC50) at 24 h in [1] and in [3] was more than 50 µM each time. Moreover, the MIC was 0.2 µM (≈ 0.0873 µg/mL) in [2] and 0.05 µM (≈ 0.0218 µg/mL) in series [4].
Regarding `NNC(=O)c1ccncc1` [ISONIAZID], the MIC in series [5] is 0.2 µM (≈ 0.0274 µg/mL); in [6], 0.39 µM (≈ 0.0535 µg/mL); in series [2], 0.16 µM (≈ 0.0219 µg/mL); in series [8], 0.39 µM (≈ 0.0535 µg/mL); in series [9] it was 0.2 µM (≈ 0.0274 µg/mL); in [4], 0.1 µM (≈ 0.0137 µg/mL). For the same molecule, the result in series [7] and in series [10] was inactive.
Regarding `O=C(NCc1ccccc1)C1CCN(c2nnc(-c3ccccc3)o2)CC1`, the IC50 at 24 h in series [1] and in series [3] was more than 50 µM throughout. Further, the MIC in [2] is more than 50 µM; in series [4], 25 µM (≈ 9.06 µg/mL).
On to `CCCCCC[C@H]1C(=O)O[C@H](C)[C@H](NC(=O)c2cccc(NC=O)c2O)C(=O)O[C@@H](C)[C@@H]1OC(=O)CC(C)C` [ANTIMYCIN A], for which the IC50 at 24 h is more than 250 µM in series [1] and 0.12 µM in [3].
As for `O=S(=O)(C1CCN(c2nnc(-c3ccccc3)o2)CC1)N1CCC(Cc2ccccc2)CC1`, the IC50 at 24 h in series [1] is more than 50 µM; in [3], 37.5 µM. Besides, the MIC is more than 50 µM in series [2] and 12.5 µM (≈ 5.83 µg/mL) in series [4].
With `CC(c1ccccc1)C1CCN(C(=O)C2CCN(c3nnc(-c4ccccc4)o3)CC2)CC1` (stereo unspecified), the IC50 at 24 h in series [1] and in series [3] was more than 50 µM each time. Besides, the MIC in [2] is 1.56 µM (≈ 0.694 µg/mL); in series [4], 0.2 µM (≈ 0.0889 µg/mL).
`O=C(C1CCN(c2nnc(-c3ccccc3)o2)C1)N1CCC(Cc2ccccc2)CC1` (stereo unspecified): the IC50 at 24 h in series [1] and in [3] was more than 50 µM throughout. For the same molecule, the MIC in series [2] came out at 50 µM (≈ 20.8 µg/mL); in series [4] it was 6.3 µM (≈ 2.62 µg/mL).
`CC(C)(C)C1CCN(C(=O)C2CCN(c3nnc(-c4ccccc4)o3)CC2)CC1`: the IC50 at 24 h in [1] and in series [3] was more than 50 µM throughout. Further, the figures for the MIC in series [2] and in series [4] were 4.7 µM (≈ 1.86 µg/mL) and 1.2 µM (≈ 0.476 µg/mL), respectively.
For `CN1CCN(C(=O)C2CCN(c3nnc(-c4ccccc4)o3)CC2)CC1`, the IC50 at 24 h in series [1] and in [3] was more than 50 µM each time. The MIC in series [2] and in series [4] was more than 50 µM throughout.
Consider `O=C(C1CCN(c2nnc(-c3ccccc3)o2)CC1)N1CCC(Cc2ccc(C(F)(F)F)cc2)CC1`, for which the IC50 at 24 h in series [1] is more than 50 µM; in series [3], 37.5 µM. In addition, the MIC turned out to be 0.3 µM (≈ 0.15 µg/mL) in series [2] and 0.1 µM (≈ 0.0499 µg/mL) in series [4].
`O=C(C1CCN(c2nnc(-c3ccccc3)o2)CC1)N1CCC(Cc2ccccc2)C1` (stereo unspecified): the IC50 at 24 h in series [1] was more than 50 µM; in [3] it was 37.5 µM. The MIC in series [2] was found to be 9.4 µM (≈ 3.92 µg/mL); in [4], 6.25 µM (≈ 2.6 µg/mL).
For `O=C(C1CCN(c2nnc(-c3ccccc3)o2)CC1)N1CCCC(Cc2ccccc2)C1` (stereo unspecified), the IC50 at 24 h in series [1] was more than 50 µM; in [3], 37.5 µM. In addition, the values for the MIC in [2] and in series [4] were 50 µM (≈ 21.5 µg/mL) and 25 µM (≈ 10.8 µg/mL), respectively.
For `O=C(C1CCN(c2nnc(-c3ccncc3)o2)CC1)N1CCC(Cc2ccccc2)CC1`, the values for the IC50 at 24 h in [1] and in [3] were more than 50 µM and 37.5 µM, respectively. In addition, the figures for the MIC in [2] and in series [4] were 1.2 µM (≈ 0.518 µg/mL) and 0.39 µM (≈ 0.168 µg/mL), respectively.
In the case of `O=C(C1CCN(c2nnc(-c3ccccc3)o2)CC1)N1CCC(Oc2ccccc2)CC1`, the IC50 at 24 h in series [1] and in series [3] was 37.5 µM in each case. The MIC in series [2] was 4.7 µM (≈ 2.03 µg/mL); in [4], 2.3 µM (≈ 0.995 µg/mL).
`O=C(NC1CCC(Cc2ccccc2)CC1)C1CCN(c2nnc(-c3ccccc3)o2)CC1` (stereo unspecified): the IC50 at 24 h in series [1] and in series [3] was more than 50 µM each time. Also, the figures for the MIC in [2] and in [4] were more than 50 µM and 4.7 µM (≈ 2.09 µg/mL), respectively.
With `O=C(C1CCN(c2nnc(-c3ccccc3)o2)CC1)N1CCc2ccccc2C1`, the IC50 at 24 h in series [1] and in [3] was more than 50 µM each time. In addition, the MIC is 50 µM (≈ 19.4 µg/mL) in series [2] and 37 µM (≈ 14.4 µg/mL) in [4].
Regarding `O=C(C1CCN(c2nnc(-c3ccccc3)o2)CC1)N1CCC(C(F)(F)F)CC1`, the IC50 at 24 h in [1] and in [3] was more than 50 µM throughout. Further, the MIC in series [2] stood at 1.56 µM (≈ 0.637 µg/mL); in series [4], 0.2 µM (≈ 0.0817 µg/mL).
Consider `O=C(C1CCN(c2nnc(-c3ccccc3)o2)CC1)N1CCN(Cc2ccccc2)CC1`, for which the IC50 at 24 h in series [1] and in [3] was more than 50 µM throughout. Besides, the minimum inhibitory concentration (MIC) turned out to be 50 µM (≈ 21.6 µg/mL) in series [2] and 25 µM (≈ 10.8 µg/mL) in series [4].
For the molecule `O=C(C1CCN(c2nnc(-c3ccc(F)cc3)o2)CC1)N1CCC(Cc2ccccc2)CC1`, the IC50 at 24 h in series [1] and in [3] was more than 50 µM in each case. Further, the minimal inhibitory concentration (MIC) stood at 1.2 µM (≈ 0.538 µg/mL) in series [2] and 0.15 µM (≈ 0.0673 µg/mL) in series [4].
In the case of `Cc1nnc(N2CCC(C(=O)N3CCC(Cc4ccccc4)CC3)CC2)o1`, the IC50 at 24 h in series [1] and in series [3] was more than 50 µM throughout. In addition, the MIC in [2] and in series [4] was more than 50 µM in each case.
For the molecule `CC(C)C1CCN(C(=O)C2CCN(c3nnc(-c4ccccc4)o3)CC2)CC1`, the IC50 at 24 h in series [1] and in series [3] was more than 50 µM throughout. Moreover, the MIC in series [2] was 4.7 µM (≈ 1.8 µg/mL); in series [4] it was 2.3 µM (≈ 0.88 µg/mL).
For the molecule `O=C(C1CCN(c2nnc(-c3ccccc3)o2)CC1)N1CCC(=Cc2ccccc2)CC1`, the IC50 at 24 h was more than 50 µM in series [1] and 37.5 µM in series [3]. Moreover, the MIC is 2.3 µM (≈ 0.986 µg/mL) in series [2] and 0.3 µM (≈ 0.129 µg/mL) in series [4].
Consider `O=C(C1CCCN(c2nnc(-c3ccccc3)o2)C1)N1CCC(Cc2ccccc2)CC1` (stereo unspecified), for which the IC50 at 24 h is more than 50 µM in series [1] and 37.5 µM in series [3]. The MIC worked out at 50 µM (≈ 21.5 µg/mL) in series [2] and 25 µM (≈ 10.8 µg/mL) in series [4].
Consider `O=C(CC1CCN(c2nnc(-c3ccccc3)o2)CC1)N1CCC(Cc2ccccc2)CC1`, for which the results for the IC50 at 24 h in series [1] and in [3] were more than 50 µM and 37.5 µM, respectively. The MIC in [2] came out at 12.5 µM (≈ 5.56 µg/mL); in series [4] it was 4.7 µM (≈ 2.09 µg/mL).
Regarding `O=C(C1CCN(c2noc(-c3ccccc3)n2)CC1)N1CCC(Cc2ccccc2)CC1`, the IC50 at 24 h is more than 50 µM in series [1] and 37.5 µM in [3]. Further, the figures for the MIC in [2] and in series [4] were 1.2 µM (≈ 0.517 µg/mL) and 0.3 µM (≈ 0.129 µg/mL), respectively.
